In patent EP1637163A1, “Indicator of therapeutic compliance” (priority 2004, dated 2006):

Legend:
[1] = design: species or system human; conditions: in vivo
Experimental: (§1) As a first step to test the feasibility of this approach, a self-experiment was conducted by the inventors. The aim was to obtain first data on the effect size, the pharmacokinetic data in various body fluids, and the variability between subjects. Single, large doses of the following substances were ingested by the subjects: ^13C6-glucose (1 g, two subjects) ^15N-L-leucine (1 g, two subjects) ^15N3-L-arginine (250 mg, one subject) ^15N4-L-histidine (250 mg, one subject) Baseline and follow-up samples were taken from the following body fluids: blood, saliva, and urine. These samples were dried, milled, burned, and analysed by mass spectrometry. The results are given as δ-values, which are defined as follows: [formula] where rsample is the ratio of ^15N [^13C] over ^14N [^13C] in the sample, and rstandard is the ratio of ^15N [^13C] over ^14N [^13C] in a standard. Samples of exhaled breath were taken until 3 days after ingestion and analysed by IR-spectroscopy for ^13C/^12C-ratios. Glucose and leucine were ingested on day zero, while arginine and histidine were ingested on day 116.
Gas of the sample tubes was separated by freezing at -196°C (N2) and - 78°C(CO2), and let into a mass spectrometer (Finnigan Delta +XL) according to manufacturer's specifications. The isotopic composition was measured and compared to a standard. Results are given as δ-values, which are defined as follows: [formula] where rsample is the ratio of ^15N [^13C] over ^14N [[…]] in the sample, and rstandard is the ratio of ^15N [^13C] over ^14N [^13C] in a standard. Samples of exhaled breath were taken until 3 days after ingestion and analysed by IR-spectroscopy for ^13C/^12C-ratios. Glucose and leucine were ingested on day zero, while arginine and histidine were ingested on day 116.

[2] = Saliva test after ingestion of labelled substance (isotope content by mass spectrometry, δ-values); type: in vivo, human
Experimental: as §1, with “The results are given as δ-values, which are defined as follows: [formula] where rsample is the ratio of ^15N [^13C] over ^14N [^13C] in the sample, and rstandard is the ratio of ^15N [^13C] over ^14N [^13C] in a standard.” left out, “^13C/^12C-ratios.” for “^13C/^12C-ratios. Glucose and leucine were ingested on day zero, while arginine and histidine were ingested on day 116.”
(§2) Blood: Appr. 4 ml of venous blood were drawn and given into a thoroughly cleaned glass vial. The sample was frozen immediately at -18°C and stored at this temperature. Saliva: Saliva samples were obtained by letting the volunteers chew on "salivettes", i. e., cotton swabs, which were then centrifuged to extract saliva. The saliva samples were frozen at -18°C and stored at this temperature. […]
(§3) The isotopic composition was measured and compared to a standard. […] Samples of exhaled breath were taken until 3 days after ingestion and analysed by IR-spectroscopy for ^13C/^12C-ratios.

[3] = Blood test after ingestion of labelled substance (isotope content by mass spectrometry, δ-values); type: in vivo, human
Experimental: as §1, with “The results are given as δ-values, which are defined as follows: [formula] where rsample is the ratio of ^15N [^13C] over ^14N [^13C] in the sample, and rstandard is the ratio of ^15N [^13C] over ^14N [^13C] in a standard.” left out, “^13C/^12C-ratios.” for “^13C/^12C-ratios. Glucose and leucine were ingested on day zero, while arginine and histidine were ingested on day 116.”
Blood: Appr. 4 ml of venous blood were drawn and given into a thoroughly cleaned glass vial. The sample was frozen immediately at -18°C and stored at this temperature. Saliva: Saliva samples were obtained by letting the volunteers chew on "salivettes", i. e., cotton swabs, which were then centrifuged to extract saliva. The saliva samples were frozen at -18°C and stored at this temperature. Urine: Urine was given into glass vials and frozen and stored at -18°C. All samples were freezedried in vacuo at -70°C, and an appropriate amount of the resulting powder was given into Supremax glass tubes, together with an appropriate amount of copper oxide, evacuated, and sealed.
as §3

[4] = design: species or system human; conditions: in vivo; remark: listed apart in the source
Experimental: as §1, with “The results are given as δ-values, which are defined as follows: [formula] where rsample is the ratio of ^15N [^13C] over ^14N [^13C] in the sample, and rstandard is the ratio of ^15N [^13C] over ^14N [^13C] in a standard.” left out, “^13C/^12C-ratios.” for “^13C/^12C-ratios. Glucose and leucine were ingested on day zero, while arginine and histidine were ingested on day 116.”
as §2, §3

period over which measurements of ^13CO2 in expired breath are sensitive [1] [days] | period over which the relative content of ^13C (DOB = delta over baseline) rises [1] [h] | relative content of ^13C returns to baseline values [1] [h] | effect size in saliva samples ([2]; saliva, single 1 g dose ingested, two subjects, relatively large variation) | remaining effect size ([3]; blood, after about 50 hours after ingestion, disturbed by large variations) | marked increase in ^13C-content (time after ingestion) ([3]; in vivo) | rapid decrease of ^13C-content until (time after ingestion) ([3]; in vivo) | relative amount of ^13C in urine: drop to normal levels [4] [days] | period after which δ-values in saliva are similar to urine-values ([2]; in vivo) | δ-^15N-values of urine: time after which the figure slowly returns to baseline values [4] | Structure (SMILES)
1 to 2 | 1 to 3 | 36 to 48 | no significant effect size | small | approximately 6 hours | about 50 hours | ≤ 5 |  |  | O[13CH2][13C@H]1O[13CH](O)[13C@H](O)[13C@@H](O)[13C@@H]1O (stereo partly shown) [^13C6-glucose]
 |  |  |  |  |  |  |  | ca. 1 week | approximately 5 days | CC(C)C[C@H]([15NH2])C(=O)O [^15N-L-leucine]
